Experimental data: US20050277586A1, “Peptide chemically modified with polyethylene glycol” (priority 2002, published 2005)

Legend:
[1] = Measurement of turbidity in BSA (absorbance at 600 nm); type: physicochemical; conditions: 1% BSA, peptide 50 μM
Experimental: The solutions were evaluated for their absorbance at a wavelength of 600 nm by using a spectrophotometer (DU640, manufactured by Beckman).

[2] = Measurement of CD spectrum with and without SDS; type: physicochemical; conditions: 10 mM phosphate buffer pH 7, 50 mM NaCl, 35° C.
Experimental: The peptide dissolved in 10 mM phosphate buffer (pH=7) containing 50 mM NaCl was evaluated for its CD spectrum in the presence and in the absence of 5 mM SDS by using a circular dichroism spectrophotometer (J-500A, manufactured by JASCO). The cell length was 1 mm. The measurement was conducted at 35° C. for 6 times in total.

21mer oligonucleotide = assay: Binding ability to oligonucleotide (gel electrophoresis); conditions: charge ratio (±ratio) of 10
Experimental: The 21mer oligonucleotide prepared by the procedure described in Example 6 (final concentration, 6.7 μM) and the peptide prepared by the procedure described in Examples 1 to 3 were mixed in 20 mM Tris-HCl buffer (pH=7.2) containing 150 mM NaCl at a charge ratio (±ratio) of 0 to 10, and the mixture was allowed to stand at 37° C. for 30 minutes. Next, 7.5 μL of this solution was mixed with an equal amount of Tris-borate buffer (pH=8.2) containing 80% formamide, and electrophoresis was conducted on 25% polyacrylamide gel containing 7M urea. After the electrophoresis, the gel was stained with 5% aqueous solution of Stains all (manufactured by Funakoshi) containing 50% formamide and washed with water to thereby determine the binding of the oligonucleotide and the peptide.
The ±ratio (charge ratio) indicated in FIG. 10 is the ratio of the number (+) of the positively-charged groups in the peptide to the number (−) of negatively-charged groups in the nucleic acid. As evident in FIG. 10, the amount of oligonucleotide that became bound to the peptide increased with the increase in the charge ratio (±ratio), and the oligonucleotide was fully bound to the peptide at a charge ratio (±ratio) of 10. The peptides of SEQ ID NO: 2 to SEQ ID NO: 24 were also found to bind at a charge ratio (±ratio) of 10.

nuclease Bal 31 = assay: Nuclease resistance-imparting ability for natural (P=O form) oligonucleotide; type: biochemical; conditions: 2 U Bal 31, 30° C., 60 minutes
Experimental: Nuclease resistance-imparting ability for natural (P═O form) oligonucleotide was evaluated. To be more specific, 2 U of nuclease Bal 31 (manufactured by Takara Shuzo) was added to 20 mM Tris-HCl buffer (pH=8) containing 50 μM of the peptide of SEQ ID NO: 1 prepared in Example 1, 3 μM of P═O form oligonucleotide prepared in Example 6, 150 mM NaCl, 12 mM MgCl2, and 12 mM CaC12, and the reaction was allowed to take place at 30° C. for 60 minutes. Next, the oligonucleotide which escaped from the decomposition was extracted with phenol/chloroform, and subjected to electrophoresis by the procedure described in Example 8 to stain the oligonucleotide.

A549 cell = assay: Luciferase-expressing plasmid introduction into A549 cell; type: cell-based, human
Excerpt: A cell line established from monkey kidney (Vero cell) and a human bladder cancer cell (T24 cell) purchased from American Type Culture Collection (ATCC) and human lung cancer cell (A549 cell) purchased from Dainippon Pharmaceutical were inoculated on a 24 well culture plate (manufactured by NALGEN NUNC) at 1×10^5 cells/well. Vero cell and A549 cell were cultivated in DMEM (manufactured by Life Technologies Oriental) supplemented with 10% fetal bovine serum (hereinafter referred to as FBS, manufactured by NICHIREI), and T24 cell was cultivated in McCoy's 5a (manufactured by Life Technologies Oriental) supplemented with 10% FBS in 5% CO2 atmosphere at 37° C. for 24 hours. […] The luciferase activity expressed in the cell was then measured by the method instructed in luciferase assay system (manufactured by Promega). […]
20 μL of this cell lysate and 100 μL of the Luciferase Assay Reagent II attached to the kit was added to a fluorescence-measuring plate (Microlite™ 1 plate, manufactured by Dynatech), and after mixing, fluorescence was measured for 1 second by using a multilabel counter (ARVO™ SY1420 MULTILABEL COUNTER, manufactured by Wallac Beltold. […]

For “TRYLRIHPRSWVHQIALRLRYLRIHPRSWVHQIALRS [SEQ ID NO: 1]”, the “OD 600” value [1] was 0.03, the “α-helix structure in CD spectroscopy in the presence of SDS” value ([2]; 5 mM SDS) was “are in α-helix structure in the presence of SDS” and the “α-helix structure in CD spectroscopy in the absence of SDS” value ([2]; no SDS) was “do not take α-helix structure in an aqueous solution solely containing an inorganic salt”. For the same sequence, the “Binding of oligonucleotide to the peptide” value (21mer oligonucleotide) was “fully bound”, the “Nuclease resistance-imparting ability for natural (P=O form) oligonucleotide” value (nuclease Bal 31) was “exhibit nuclease resistance-imparting ability” and the Luciferase activity (A549 cell) was 8.7 × 10^4 cps/mg protein.
